In patent EP0784620B1, “N-SUBSTITUTED PIPERIDINYL BICYCLIC BENZOATE DERIVATIVES” (JANSSEN PHARMACEUTICA N.V., priority 1994, dated 1996):
Counter-ions that a name gives are not always drawn.

system: ileum segments; assay: Guinea Pig Ileum Coaxial Stimulation; assay type: tissue-based; details: Cavia porcellus, 5 min; concentration of 3.10^-9 M; five minutes after administration versus before; submaximal electrical stimulation (80% of maximal response); read-out: increase of the amplitude of the twitch response
Method: Example 10 : Guinea Pig Ileum Coaxial Stimulation. Dunkin Hartley guinea-pigs of both sexes (body weight ± 500 g) were killed by decapitation. The ileum was removed and cleansed with warmed and oxygenated Krebs-Henseleit solution. Non-terminal, intact ileum segments, 4.5 cm long, of the guinea pig were vertically suspended with a preload of 1 g in 100 ml Krebs-Henseleit solution (37.5°C), gassed with a mixture of 95% O2 and 5% CO2. Transmural excitation was applied over the whole length of the ileum segment by means of two platinum electrodes, the anode threaded through the lumen of the ileum, the cathode in the bathing solution. The preparation was excited with single rectangular […] [1 msec; 0.1 Hz; submaximal response (current leading to 80% of maximal reponse)] from a progammable stimulator. Contractions were measured isometrically. During the stabilization period of 30 min, the strips were repeatedly stretched to a tension of 2g, in order to obtain a steady state tension of lg. Before starting the electrical stimulation, a cumulative dose response curve of acetylcholine was given. The electrical stimulation was started at supramaximal current to determine the maximal amplitude of the twitch responses. When these responses were stable, a submaximal stimulation to obtain 80% of the maximal responses was given until the twitch responses were constant for at least 15 min, whereafter a single dose of the test compound was added to the bath fluid. The amplitude of the twitch response five minutes after the administration of the test compound is compared with the amplitude before the administration of the test compound.

Compound	activation at 0.003 µM
CC1(C)CCc2c(N)c(Cl)cc(C(=O)OC3CCN(CC4CCCO4)CC3)c2O1 (racemic) [Compound 32, 1-[(tetrahydro-2-furanyl)methyl]-4-piperidinyl 5-amino-6-chloro-3,4-dihydro-2,2-dimethyl-2H-1-benzopyran-8-carboxylate]	> 5%
Nc1c(Cl)cc(C(=O)OC2CCN(CCCC3CCCO3)CC2)c2c1CCO2 (racemic) [Compound 35]	> 5%
Nc1c(Cl)cc(C(=O)OC2CCN(CCC3CCCO3)CC2)c2c1CCO2 (racemic) [Compound 36, 1-[2-(tetrahydro-2-furanyl)ethyl]-4-piperidinyl 4-amino-5-chloro-2,3-dihydro-7-benzofurancarboxylate]	> 5%
CCn1c(=O)n(CCN2CCC(OC(=O)c3cc(Cl)c(N)c4c3OCC4)CC2)c2ccccc21 [Compound 1]	> 5%
CC(C)OCCCN1CCC(OC(=O)c2cc(Cl)c(N)c3c2OCC3)CC1 [Compound 4, 1-[3-(1-methylethoxy)propyl]-4-piperidinyl 4-amino-5-chloro-2,3-dihydro-7-benzofurancarboxylate monohydrochloride]	> 5%
CC1(CCCN2CCC(OC(=O)c3cc(Cl)c(N)c4c3OCC4)CC2)OCCO1 [Compound 6, 1-[3-(2-methyl-1,3-dioxolan-2-yl)propyl]-4-piperidinyl 4-amino-5-chloro-2,3-dihydro-7-benzofurancarboxylate]	> 5%
Nc1c(Cl)cc(C(=O)OC2CCN(CCCn3nc(Cl)ccc3=O)CC2)c2c1CCO2 [Compound 7, 1-[3-(3-chloro-6-oxo-1(6H)-pyridazinyl)propyl]-4-piperidinyl 4-amino-5-chloro-2,3-dihydro-7-benzofurancarboxylate]	> 5%
CC(=O)CCCN1CCC(OC(=O)c2cc(Cl)c(N)c3c2OCC3)CC1 [Compound 8, 1-(4-oxopentyl)-4-piperidinyl 4-amino-5-chloro-2,3-dihydro-7-benzofurancarboxylate]	> 5%
Nc1c(Cl)cc(C(=O)OC2CCN(CCOCCO)CC2)c2c1CCO2 [Compound 14, 1-[2-(2-hydroxyethoxy)ethyl]-4-piperidinyl 4-amino-5-chloro-2,3-dihydro-7-benzo-furancarboxylate]	> 5%
COCCCN1CCC(OC(=O)c2cc(Cl)c(N)c3c2OCC3)CC1 [Compound 15, 1-(3-methoxypropyl)-4-piperidinyl 4-amino-5-chloro-2,3-dihydro-7-benzofuran-carboxylate]	> 5%
CCN1CCC(OC(=O)c2cc(Cl)c(N)c3c2OC(C)(C)C3)CC1 [Compound 16]	> 5%
CCOC(=O)CCCN1CCC(OC(=O)c2cc(Cl)c(N)c3c2OCC3)CC1 [Compound 33, ethyl 4-[[(4-amino-5-chloro-2,3-dihydro-7-benzofuranyl)carbonyl]oxy]-1-piperidinebutanoate]	> 5%
Nc1c(Cl)cc(C(=O)OC2CCN(CC3CC3)CC2)c2c1CCO2 [Compound 34]	> 5%
Cc1nccnc1NCCN1CCC(OC(=O)c2cc(Cl)c(N)c3c2OCC3)CC1 [Compound 39, 1-[2-[(3-methyl-2-pyrazinyl)amino]ethyl]-4-piperidinyl 4-amino-5-chloro-2,3-dihydro-7-benzofurancarboxylate]	> 5%
COC1CN(CCCC2(C)OCCO2)CCC1OC(=O)c1cc(Cl)c(N)c2c1OCC2 (stereo not shown) [Compound 46]	> 5%
COC1CN(CCCn2nc(Cl)ccc2=O)CCC1OC(=O)c1cc(Cl)c(N)c2c1OCC2 (stereo not shown) [Compound 50]	> 5%
